Results taken from patent US7015244B1 (priority 1998, dated 2006).

What was measured:
tumor = conditions: Phase II, cytotoxic doses; cited from earlier work
[1] = test system: human epidermoid cells, virally infected with HSV-2; conditions: cited from earlier work
[2] = test system: human epidermoid cells, virally infected with HSV-2
[3] = test system: human epidermoid cells, virally infected with HSV-2; conditions: cited from earlier work; remark: listed apart in the source
[4] = human, inhaled or intranasal

Row | Compound | hematologic toxicity (tumor) | overall tumor response rate (tumor) | Trichothecene in Vitro Concentration, Inhibitory 50% [1] | Trichothecene in Vitro Concentration, Inhibitory 80% [1] | Trichothecene in Vitro Concentration, Inhibitory 90% [1] | Trichothecene in Vitro Concentration, Inhibitory 99% [1] | inhibition of hyperactive protein synthesis [1] | Trichothecene in Vitro Concentration, Cytotoxic Min [2] | Trichothecene in Vitro Concentration, Toxic Lo [2] | Trichothecene in Vitro Concentration, Cytotoxic Max ([2]; human) | concentrations that did not reduce cell viability [3] | In Vivo Dose for Average 1200 Gram Lungs, Cytotoxic Max [4]
1 | CC(=O)OC[C@]12CCC(C)=C[C@H]1O[C@@H]1[C@H](O)[C@@H](OC(C)=O)[C@@]2(C)[C@]12CO2 [Anguidine] | considerable hematologic toxicity | low |  |  |  |  |  |  |  |  |  | 
2 | CC(=O)OC[C@]12CCC(C)=C[C@H]1O[C@@H]1[C@H](O)[C@@H](OC(C)=O)[C@@]2(C)[C@]12CO2 [DAS] |  |  | 2.3 ng/mL | 4.0 ng/mL | 4.5 ng/mL | 5.0 ng/mL | ~99% | 6 ng/mL | 201 ng/mL | 200 ng/mL | up to 200 ng/ml | 240000 ng
